Test results taken from patent US10314816B2, “Antimicrobial compounds, compositions and methods of use thereof” (Wisconsin Alumni Research Foundation, priority 2012, dated 2019).

Legend:
[1] = system: C. crescentus strain (MT97); test: In vivo screen with C. crescentus strain that expresses MipZ-YFP; assay type: cell-based, Caulobacter crescentus; details: 20 μM in agarose pad; data not shown
Procedure: In vivo screen with a Caulobacter crescentus strain that expresses MipZ-YFP. Hits from in vitro screens were tested for activity in vivo. A C. crescentus strain (MT97) that expresses mipZ-yfp from the native mipZ promoter was used. An overnight culture of MT97 was diluted to an absorbance (λ=600 nm) of ˜0.1; the diluted culture was grown further for at least 1 hour prior to compound treatment. Compounds were mixed with a solution of 1% agarose in M2G media to achieve a final concentration of 20 μM. The cells (1 μL per pad) were transferred on top of the compound-containing agarose pad, and the cell morphology and localization of MipZ-YFP were imaged for a period of 24 hours using epifluorescence microscopy. In between microscopic observations, the inoculated pads were incubated at 30° C. to promote growth.
Hits were further screened for antibacterial activity using a Caulobacter crecentus strain that expresses MipZ-YFP as described in Materials and Methods.

S. typhimurium = test: MIC of bacterial growth (Table 2); assay type: cell-based; details: Salmonella enterica; S. typhimurium clinical isolate (Table 2)
Procedure: (§1) Determination of the minimum inhibitory concentration (MIC) of bacterial growth. The MIC of various organisms in liquid media was determined using the macrodilution method according to the NCCLS guidelines. For the starting inoculum, cultures were diluted to contain approximately 5×10^5 cells/mL in growth media. To create a two-fold dilution series for the macrodilution technique, each compound was added to the first culture tube (4 mL total volume) at the highest concentration. 2 mL of this culture was diluted into an equal volume of inoculated media (a two-fold dilution). The final volume for each culture was 2 mL.

A. baumannii = test: MIC of bacterial growth (Table 2); assay type: cell-based; details: Acinetobacter baumannii; A. baumannii clinical isolate (Table 2)
Procedure: as §1

E. tarda = test: MIC of bacterial growth (Table 2); assay type: cell-based; details: Edwardsiella tarda; E. tarda clinical isolate (Table 2)
Procedure: as §1

S. boydii = test: MIC of bacterial growth (Table 2); assay type: cell-based; details: Shigella boydii; S. boydii clinical isolate (Table 2)
Procedure: as §1

V cholera = test: MIC of bacterial growth (Table 2); assay type: cell-based; details: Vibrio cholerae
Procedure: as §1

K. pneumoniae = test: MIC of bacterial growth (Table 2); assay type: cell-based; details: Klebsiella pneumoniae; K. pneumoniae clinical isolate (Table 2)
Procedure: as §1

M. morganii = test: MIC of bacterial growth (Table 2); assay type: cell-based; details: Morganella morganii; M. morganii clinical isolate (Table 2)
Procedure: as §1

Vibrio cholera = test: MIC of DCAP analogs, LB media, microdilution (CLSI); assay type: cell-based; details: Vibrio cholerae
Procedure: (§2) Luria-Bertani (LB) media (10 g/L tryptone, 10 g/L NaCl, 5 g/L yeast extract, pH 7.0) was used to grow all the strains represented in Tables 5 and 6. All the cultures were grown at 37° C. All the E. coli strains were grown while shaking at 200 rpm and the clinical pathogens were statically incubated.
(§3) For clinical pathogenic organisms including S. typhimurium, V. cholera, S. boydii, K pneumonia, E. aerogenes, A. baumannii, E. tarda, and M. morganii strains, liquid LB media in 96-well microplates (100 μL/well) and the microdilution method from the CLSI guidelines were used.

Shigella boydii = test: as above; assay type: cell-based; details: microdilution (Table 6)
Procedure: as §2, §3

Edwardsiella tarda = test: as above; assay type: cell-based; details: microdilution (Table 6)
Procedure: as §2, §3

Acinetobacter baumannii = test: as above; assay type: cell-based; details: microdilution (Table 6)
Procedure: as §2, §3

Morganella morganii = test: as above; assay type: cell-based; details: microdilution (Table 6)
Procedure: as §2, §3

Salmonella typhimurium = test: as above; assay type: cell-based; details: Salmonella enterica, microdilution (Table 6)
Procedure: as §2, §3

Klebsiella pneumonia = test: as above; assay type: cell-based; details: Klebsiella pneumoniae, microdilution (Table 6)
Procedure: as §2, §3

Enterobacter aerogenes = test: as above; assay type: cell-based; details: Klebsiella aerogenes, microdilution (Table 6)
Procedure: as §2, §3

MipZ-YFP = test: Effects of compounds on MipZ localization; assay type: cell-based, Caulobacter crescentus; details: DCAP 20 μM, 20 min after treating C. crescentus cells; p=0.0002 vs DMSO
Procedure: Effects of compounds on MipZ localization. A strain of C. crescentus in which MipZ was translationally fused to yellow fluorescent protein (YFP) was used to determine the effect of DCAP on MipZ localization. For experiments with C. crescentus expressing MipZ-YFP, overnight cultures were diluted 10-fold and incubated at least 1 hour prior to treatment with compounds. After adding compounds, cells were incubated at 200 rpm and 30° C. for 20 minutes. Cells were imaged as described above. Following cell segmentation and fluorescence signal calculation in MicrobeTracker, a separate MATLAB script was used to detect signal peaks within an individual cell. The number of total peaks and peak locations were calculated (i.e., poles or mid-cell) for each cell. Poles were defined as 1-25% and 75-100% along the normalized cell length (1-100%). […] After this classification, a contingency table was created with the total number of cells analyzed, and the number of cells with the ‘wildtype’ localization. […]
As a positive control, carbonyl cyanide m-chlorophenyl hydrazone (CCCP) was used. In FIG. 3, ‘wildtype’ (WT) localization was defined as 1) unipolar (a single peak of fluorescence signal at a pole) and 2) bipolar (two peaks at poles). […] At least 69 cells were analyzed for each sample. […]

With `OCC(CO)(CO)NCC(O)Cn1c2ccc(Cl)cc2c2cc(Cl)ccc21` (centres unmarked) [DCAP, 2-((3-(3,6-dichloro-9H-carbazol-9-yl)-2-hydroxypropyl)amino)-2-(hydroxymethyl)propane-1,3-diol] the “Antibacterial activity in the MipZ-YFP assay” value [1] was “confirmed as having antibacterial activity”, the MIC (S. typhimurium) was 50 µM and the MIC (A. baumannii) was 200 µM. It also gave an MIC (E. tarda) of 200 µM, an MIC (S. boydii) of 100 µM and an MIC (V cholera) of 100 µM. It also gave an MIC (K. pneumoniae) of 100 µM, an MIC (M. morganii) of 200 µM and an MIC (Vibrio cholera) of 50 µM. The MIC (Shigella boydii) was 100 µM, the MIC (Edwardsiella tarda) was 100 µM and the MIC (Acinetobacter baumannii) was 200 µM. For the same molecule, the MIC (Morganella morganii) was 200 µM, the MIC (Salmonella typhimurium) was 100 µM and the MIC (Klebsiella pneumonia) was 200 µM. For the same molecule, the MIC (Enterobacter aerogenes) was 200 µM and the MipZ-YFP localization (MipZ-YFP) was “caused MipZ-YFP to mislocalize”.
